From patent US4665086A, “Method for minimizing disturbances in circadian rhythms of bodily performance and function” (priority 1983, dated 1987)
“And” between values parts separate entries of the source, which are not always exact repeats. Equal values may be shown once. “Also recorded” adds a separate entry of the source. Read-outs that look alike come from different tables or passages of the source.

How the values were obtained:
depressed patients = details: cited from earlier work
[1] = system: circadian rhythms in humans (jet lag); experiment: Example 1: Subject A, flight Melbourne-North Carolina-Melbourne, melatonin at local bedtime; format: in vivo, human
Source text: Subject A was a Professor of Physiology who had never taken melatonin before. |Flight from Melbourne → North Carolina, U.S.A. → Melbourne. |Details of activity schedule, sleeping time, melatonin administration. In this example Subject A used a preparation of crystalline melatonin in a gelatin capsule.

[2] = system: circadian rhythms in humans (jet lag); experiment: Example 5: Subject B, double-blind trial, Capsule A (melatonin) vs Capsule B (placebo), flight Melbourne-Geneva-Rotterdam-Melbourne; format: in vivo, human
Source text: Subject B Flight from Melbourne→Geneva→Rotterdam→Melbourne 30.1.84-19.2.84
This was a double-blind trial. The subject, a Clinical Professor who had never taken Melatonin before, was given two bottles labelled A and B containing identical-looking gelatin capsules, and told to take one capsule A on going to bed, and again if awaking in the middle of the night, for the first 4 days after arrival in Geneva. They were told to take one capsule B according to the same schedule after return to Melbourne, and to record the quality of each night's sleep and feelings during the daytime. Capsule A contained 5 mg Melatonin. and capsule B contained a placebo (sucrose). Only after the subject had completed their written report 4 days after returning to Melbourne were they told which pills contained Melatonin and which contained placebo.

[3] = system: free-running circadian activity rhythm of rats; details: pharmacological doses, only when given at onset of spontaneous activity; cited from earlier work
[4] = system: circadian rhythms in humans (jet lag, body temperature rhythm); experiment: Example 4: Subject A, round-the-world flight, melatonin with rectal temperature record (Vitalog PMS8); format: in vivo, human
Source text: Subject A Flight from Melbourne→Geneva→London→Chapel Hill, N.C.→Melbourne 18.9.83-30.9.83. […] During this experiment use was made of a portable Vitalog PMS8 mini computer to record the temperature of Subject A. The Vitalog PMS8 recorded body temperature at ten minute intervals utilizing a rectal temperature probe. […] A discussion of the temperature record follows. During this flight Subject A wore the Vitalog PMS8 mini computer and rectal probe for the continuous recording of their deep body temperature. The equipment malfunctioned after 4 days due to premature battery failure. From 18.9.83- 23.9.83 Subject A kept a detailed daily log of quality and nature of sleep, modd, and alertness according to a technique developed by NASA. […] The dark, dotted regions represent dark periods. The time scale is for Melbourne time no matter where Subject A is identified by one of the letters A, B, C, D or E. Recordings of dark periods B, C and D have been repeated to give continuity to the record. The black arrows identify the times of administration of melatonin.

human subjects = details: pharmacological doses; cited from earlier work
[5] = Example 9: absorption and clearance of orally administered melatonin, plasma radioimmunoassay; format: in vivo, human
Source text: This was two hours after a light breakfast of apple juice, cereal and tea. Blood sampling was continued until 1400 hrs. The blood was immediately centrifuged, and the plasma frozen until assayed for melatonin using a specific radioimmunoassay developed in the inventors' laboratory as a modification of the procedure originally described by D. J. Kennaway et al. (Endocrinology 110, 1766, 1982.) The results are shown in the accompanying FIG. 2.

[6] = system: hamsters, sheep, ferrets and deer; details: physiological doses by mouth, implant or injection; cited from earlier work
[7] = system: circadian rhythms in humans (jet lag); experiment: Example 3: Subject A, flight Melbourne-Stockholm-London-Melbourne, melatonin at local bedtime; format: in vivo, human; details: 5 mg oral
Source text: |Subject A Flight from Melbourne → Stockholm → London |Detail of activity schedule, sleeping times, melatonin adminsitration.

[8] = system: circadian rhythms in humans (jet lag); format: in vivo, human
Experimental: (§1) Subject D Flight from Melbourne→London→Edinburgh→London→Melbourne 23.3.84-2.4.84 The subject, a Clinical Professor who had never taken Melatonin before, was given gelatin capsules containing 5 mg Melatonin and instructed to take one capsule on going to bed in the evening (local time) after arrival at their destination, and to take a further capsule if they awoke in the night.

[9] = system: circadian rhythms in humans (jet lag); experiment: Example 6: Subject C, flight Melbourne-Los Angeles-Washington-London-Vancouver-Melbourne, verbatim account; format: in vivo, human; details: for overall effect on jet-lag (subject's impression, comment): 5 mg capsule on retiring and a second on awaking
Experimental: as §1, with “C” for “D”, “Melbourne→Los Angeles→Washington→London→Vancouver→Melbourne. 15.2.84-27.3.84” for “Melbourne→London→Edinburgh→London→Melbourne 23.3.84-2.4.84”, “a” for “a Clinical”

[10] = system: circadian rhythms in humans (jet lag); experiment: Example 8: Subject E, flight London-Melbourne; format: in vivo, human; details: 5 mg at bedtime; for symptoms of jet-lag: Easterly flight London-Melbourne
Source text: Subject E Flight from London→Melbourne→London 30.12.83-16.1.84

[11] = system: circadian rhythms in humans (jet lag); experiment: Example 2: Subject A, flight Melbourne-Munster-Melbourne, melatonin at local bedtime; format: in vivo, human; details: 5 mg oral capsule
Source text: |Flight from Melbourne → Munster, W. Germany → Melbourne. |Details of activity schedule, sleeping time, melatonin administration. As in Example 1, Subject A took melatonin packaged in a gelatine capsule.

[12] = Capsule A = 5 mg Melatonin, Geneva

## COc1ccc2[nH]cc(CCNC(C)=O)c2c1 [melatonin, 5-methoxy-N-acetyltryptamine]
Depressed patients
  effect on symptoms of depressed patients: exacerbation of symptoms including florid psychotic episodes
[1]; 2.5-5.0 mg oral melatonin at bedtime and on waking
  symptoms of jet lag / fatigue (comment): no symptoms of jet lag whatsoever; also recorded: never felt any fatigue whatsoever
[1]; 2.5 or 5.0 mg oral per dose
  feeling on awakening after melatonin sleep (diary): Felt fresh, relaxed, not jet-lagged; also recorded: felt fresh, relaxed
  sleep after taking melatonin (diary): fell asleep again
[1]; awoke during the night in North Carolina, oral crystalline melatonin in gelatin capsule
  time to fall asleep again after taking additional melatonin: ≤ 15 min
[2]
  time after entering new time zone until able to sleep at period coinciding with early morning in zone of departure: ≤ 24 h
[2]; 5 mg melatonin per capsule, first 4 days in Geneva, double-blind
  subject's blinded conclusion on effect of capsule: making them less tired and more alert in the meetings at WHO in Geneva
[2]; [12]
  feeling during day (diary): felt tired in morning
  sleep after taking capsule (diary): fell asleep again; also recorded: slept well; also recorded: sleep well
[3]
  entrainment of free-running circadian activity rhythm: could entrain the free-running circadian activity rhythm of rats
[4]; 5 mg oral, listed as Melatonin
  feeling on awakening / during day after melatonin sleep (diary): feeling excellent; also recorded: feeling drowsy, slight headache; also recorded: feeling fine; also recorded: feeling good; also recorded: Felt fine; also recorded: tired and sleepy and cold; also recorded: Felt very sleepy, but this soon passed
  sleep after taking melatonin (diary): Fell asleep at once; also recorded: Did not fall asleep; also recorded: half an hour; also recorded: slept soundly
  time to fall asleep after taking melatonin (diary): 30 min and 25 min
[4]; 5 mg oral, round-the-world flight in Westerly direction
  subjective symptoms of jet-lag (comment): no subjective symptoms of jet-lag
[4]; after arrival in Geneva, rectal probe
  time of maximal body temperatures: around midnight Melbourne time
[4]; rectal temperature, after arrival in Geneva, FIG. 1
  re-entrainment of body temperature rhythm: re-entrained extremely rapidly to Geneva time
[4]; third and fourth sleep periods in Geneva, rectal probe
  time of lowest body temperatures: around mid-day Melbourne time
Human subjects
  effect on sleep: induces drowsiness and sleep
[5]; Subject A, 5 mg oral
  plasma melatonin concentration at which subjective feelings of drowsiness were experienced: exceeded 2 ng/ml
  subjective effects coincident with maximal plasma levels: yawning and sleepiness
[5]; human, plasma, po, 5 mg, Subject A, 5 mg oral in gelatin capsule, read-out: time after ingestion to peak plasma concentration (converted)
  Tmax: 1.1 h
[5]; in vivo, po
  plasma values 260 minutes after ingestion relative to normal nocturnal values of around 100 pg/ml plasma: 10 times higher
[6]
  timing of the annual breeding season: capable of altering the timing of the annual breeding season
[7]
  sleep after taking melatonin (diary, comment): sleep well at an inappropriate time of the day
[7]; 8-9 hour time change
  feeling jet-lagged (comment): At no time during the day either in Sweden or on their return to Melbourne did they feel jet-lagged
[7]; listed as Melatonin
  feeling on awakening / during day after melatonin sleep (diary): Feeling fine; also recorded: Felt good; also recorded: feeling good; also recorded: Felt fine
  sleep after taking melatonin (diary, comment): fell asleep again; also recorded: good sleep; also recorded: slept well; also recorded: sleep until 2330 hrs; also recorded: asleep 2400 hrs
[7]; return flight after Singapore
  time to fall asleep after taking melatonin (diary): 3/4
[8]; Subject D, 5 mg (5+5 mg on Bombay-London leg), listed as Melatonin
  sleep after taking melatonin: did not induce sleep when taken on the outward journey
[8]; Subject D, much less than when using Mogadon
  napping during daytime meeting talks: napped minimally
[8]; human, in vivo
  effects of discontinuing melatonin: no adverse effects
[9]
  overall effect on jet-lag (subject's impression, comment): prevented the usual, unpleasant symptoms associated with rapid changes in time zones
[9]; listed as Melatonin
  overall effect on jet-lag (subject's impression, comment): great improvement over my normal experience of jet-lag
[9]; Los Angeles, London (5 h change), Vancouver (8 h change)
  feeling / adjustment the day after melatonin: felt very close to normal; also recorded: feeling normal and appeared to be fully adjusted to the London time; also recorded: felt a little unusual and later, around 4.00 pm felt very sleepy
[9]; first night in Los Angeles
  sleep after taking melatonin: sleep that night appeared normal
[10]
  sleep after taking melatonin: slept well
  symptoms of jet-lag: no signs of jet-lag on the 3rd day
[10]; listed as Melatonin
  symptoms of jet-lag: no symptoms of jet-lag; also recorded: appeared to prevent all symptoms of jet-lag
  sleep after taking melatonin: excellent night's sleep
[11]
  sleep after taking melatonin (diary, comment): sleep well following both Westerly and Easterly flights
[11]; 8-hour time zone change
  symptoms of jet lag (comment): no symptoms of jet lag apart from tiredness on the second day after their return to Melbourne
[11]; listed as Melatonin
  feeling on awakening / during day after melatonin sleep (diary): Felt fresh and rested, much less tired; also recorded: feeling excellent; also recorded: feeling fine; also recorded: feeling good; also recorded: felt fresh and rested; also recorded: Felt tired during the day; also recorded: hangover
  sleep after taking melatonin (diary, comment): fell asleep; also recorded: slept deeply; also recorded: good sleep; also recorded: slept very well; also recorded: slept well
